The source of these data is patent US6117875A, “Pyrido (2,3-B) pyrazine derivatives” (Fujisawa Pharmaceutical Co., Ltd., priority 1995, dated 2000).

SMILES strings stand for the structures.

The target in assay [1] is U937 phosphodiesterase IV (PDE IV). In words: Inhibition of U937 phosphodiesterase IV (PDE IV). It counts as biochemical. The settings on record: PDE IV preparation from U937 cells, [3H]-cAMP, 10 μM CI-930 (PDE III inhibitor) present, 30°C, pH 8.0. The procedure:
Harvested U937 was freezed in -80pbC. and throwed to destroy the cell body. The pellet of destroyed cell was washed by Phosphate-buffered saline (PBS).
The washed cell pellet was homogenized with Dounce homogenizer (20 strokes) in homogenizing buffer (0.5% deoxycholate [DOC], 5 mM 2-mercaptoethanol, 1 μM leupeptin, 100 μM PMSF, 20 μM p-tosyl-L-lysine-chloromethyl ketone [TLCK] in PBS). The homogenate was centrifuged at 100,000 g×90 minutes (4pbC.) and the supernatant containing PDE IV activity was dialyzed against dialysis buffer, which was the same component as homogenizing buffer without DOC. The dialyzed supernatant of homogenate was stored in freezer (-80pbC.) as PDE IV enzyme preparation.
Enzyme preparation was diluted in assay buffer (10 mM Tris-HCl, 5 mM MgCl, 1 mM 2-Mercaptoethanol [pH 8.0]). In advance the rate of dilution was choosen every new lot of homogenizing preparation. For blank, a part of the enzyme preparation was boiled for 10 minutes. […]
The reaction tube was preincubated in a water bath (30pbC.) for 5 minutes, then 100 μl [^3 H]-cAMP (37.0 MBq/ml [^3 H]-cAMP: 4 μM cold cAMP=1:800) was added thereto. […] The mixture was centrifuged at 1000 rpm×5 minutes, and then 500 μl of the supernatant was added to 10 ml scintillation fluid in appropriate vial, vortexed, and counted for [^3 H].
The inhibitory activity was calculated according to the following equation: [formula]

For assay [2], the system named is TNF-α production in human mononuclear cells. Briefly: Inhibition on TNF-α production in human mononuclear cells. In kind it is cell-based. The note with it: TNF-α by ELISA, human MNC, 1 μg/ml LPS (E. coli), 37°C, 16 hours. As to the method: Blood was drawn from healthy volunteers with heparin. The mononuclear cell (MNC) fraction was obtained by gradient centrifugation (1800 rpm, 15 minutes), diluted with the same volume of RPMI-1640 culture medium, over Ficoll-Paque (Pharmacia LKB Biotechnology). MNC were washed twice with RPMI-1640. Then, MNC were resuspended in RPMI-1640 culture medium supplemented with 2 mM L-glutamine and 1% fetal bovine serum. MNC were incubated at 37pbC. for 16 hours in 96-well micro culture plate at a concentration of 3×10^5 cells/well with or without 1 μg/ml lipopolysaccharide (LPS) (from E. coli) and various amounts of test compound. At the end of incubation, the supernatant was obtained and its TNF-α active was measured by enzyme-linked immunosorbent assay (ELISA). ELISA was performed with TNF-α ELISA kit (Otsuka Pharmaceutical Co., Ltd.).

As to `CC(=O)Nc1ccc(/C=C/C(=O)Nc2cccc(-c3cccc(-n4c(=O)c(Cc5cccnc5)nc5cccnc54)c3)c2)cn1` [Test compound (a), 4-[3-[3-[(E)-3-(6-acetamido-3-pyridyl)acryloylamino]phenyl]phenyl]-2-(3-pyridylmethyl)-3-oxo-3,4-dihydropyrido[2,3-b]pyrazine], the values for the IC50 in assay [1] and in assay [2] were 16 nM and 24 nM, respectively.
